Key:
Assay type in all cases: in vivo
[1] = system: cotton aphid (Aphis gossypii); assay: Test Example 3: pesticidal effect against cotton aphid by spray treatment (cucumber leaf disk, control value); conditions: composition of the compound and clothianidin; spray over cucumber leaf disk, 25° C., 5 days; summary of Table 49
[2] = system: brown planthopper (Nilaparvata lugens); assay: Test Example 4: pesticidal effect against brown planthopper by foliage spray treatment of rice (control value); conditions: foliage spray of rice seedlings, third-instar larvae, after 5 days
[3] = system: cotton aphid (Aphis gossypii); assay: Test Example 1: pesticidal effect against cotton aphid by spray treatment (cucumber leaf disk, control value); conditions: composition of the compound and clothianidin; spray over cucumber leaf disk, 25° C., 5 days; summary of Table 43
Experimental: A commercially available clothianidin water-soluble agent, manufactured by Sumitomo Chemical Co., Ltd. under the product name of Dantotsu (registered trademark) water-soluble agent, as the neonicotinoide compound was diluted with water. […] In a well of 24-well plate containing agar, a cucumber leaf disk was put on the agar and about 15 cotton aphids (Aphis gossypii) were released on the leaf disk. The test chemical solution (20 μl/well) was sprayed over the leaf disk, followed by storage in a constant-temperature breeding room at 25° C. for 5 days, and then the number of surviving aphids was checked. A control value (%) was calculated by the following equation. […] wherein symbols represents the following meanings. Cb: Number of bugs in non-treated group before treatment Cai: Number of bugs in a non-treated group on observation Tb: Number of bugs in treated group before treatment Tai: Number of bugs in treated group on observation

[4] = system: brown planthopper (Nilaparvata lugens); assay: Test Example 2: pesticidal effect against brown planthopper by foliage spray treatment of rice (control value); conditions: foliage spray of rice seedlings, third-instar larvae, after 5 days
[5] = composition of the compound and clothianidin, summary of Table 50
[6] = composition of the compound and dinotefuran, summary of Table 54
[7] = composition of the compound and imidacloprid, summary of Table 53
[8] = composition of the compound and nitenpyram, summary of Table 51
[9] = composition of the compound and thiamethoxam, summary of Table 52

FC(F)(F)COc1cnccc1-c1nc2cc(C(F)(F)F)ccc2o1 [Compound 39, 2-[3-(2,2,2-trifluoroethyl)oxypyridin-4-yl]-5-(trifluoromethyl)benzoxazole]
high pesticidal efficacy: pesticidal efficacy against cotton aphid (Aphis gossypii) [1] | pesticidal efficacy against brown planthopper (Nilaparvata lugens) [2, 5] | pesticidal efficacy against brown planthopper (Nilaparvata lugens) [2, 6] | pesticidal efficacy against brown planthopper (Nilaparvata lugens) [2, 7] | pesticidal efficacy against brown planthopper (Nilaparvata lugens) [2, 8] | pesticidal efficacy against brown planthopper (Nilaparvata lugens) [2, 9]

CC(C)COc1cnccc1-c1nc2cc(C(F)(F)F)ccc2o1 [Compound 116, 2-(3-isobutoxypyridin-4-yl)-5-(trifluoromethyl)benzoxazole]
high pesticidal efficacy: pesticidal efficacy against cotton aphid (Aphis gossypii) [1] | pesticidal efficacy against brown planthopper (Nilaparvata lugens) [2, 5] | pesticidal efficacy against brown planthopper (Nilaparvata lugens) [2, 6] | pesticidal efficacy against brown planthopper (Nilaparvata lugens) [2, 7] | pesticidal efficacy against brown planthopper (Nilaparvata lugens) [2, 8] | pesticidal efficacy against brown planthopper (Nilaparvata lugens) [2, 9]

CC(C)(C)COc1cnccc1-c1nc2cc(C(F)(F)F)ccc2o1 [Compound 117, 2-[3-(2,2-dimethylpropoxy)pyridin-4-yl]-5-(trifluoromethyl)benzoxazole]
high pesticidal efficacy: pesticidal efficacy against cotton aphid (Aphis gossypii) [1] | pesticidal efficacy against brown planthopper (Nilaparvata lugens) [2, 5] | pesticidal efficacy against brown planthopper (Nilaparvata lugens) [2, 6] | pesticidal efficacy against brown planthopper (Nilaparvata lugens) [2, 7] | pesticidal efficacy against brown planthopper (Nilaparvata lugens) [2, 8] | pesticidal efficacy against brown planthopper (Nilaparvata lugens) [2, 9]

CSc1cnccc1-c1nc2cc(C(F)(F)F)cnc2o1 [Compound 146, 2-(3-methylthiopyridin-4-yl)-6-(trifluoromethyl)oxazolo[5,4-b]pyridine]
high pesticidal efficacy: pesticidal efficacy against cotton aphid (Aphis gossypii) [3] | pesticidal efficacy against brown planthopper (Nilaparvata lugens) ([4]; composition of the compound and clothianidin, summary of Table 44) | pesticidal efficacy against brown planthopper (Nilaparvata lugens) ([4]; composition of the compound and dinotefuran, summary of Table 48) | pesticidal efficacy against brown planthopper (Nilaparvata lugens) ([4]; composition of the compound and imidacloprid, summary of Table 47) | pesticidal efficacy against brown planthopper (Nilaparvata lugens) ([4]; composition of the compound and nitenpyram, summary of Table 45) | pesticidal efficacy against brown planthopper (Nilaparvata lugens) ([4]; composition of the compound and thiamethoxam, summary of Table 46)

FC(F)(F)COc1cnccc1-c1nc2cc(C(F)(F)F)cnc2o1 [Compound 163]
high pesticidal efficacy: pesticidal efficacy against cotton aphid (Aphis gossypii) [1] | pesticidal efficacy against brown planthopper (Nilaparvata lugens) [2, 5] | pesticidal efficacy against brown planthopper (Nilaparvata lugens) [2, 6] | pesticidal efficacy against brown planthopper (Nilaparvata lugens) [2, 7] | pesticidal efficacy against brown planthopper (Nilaparvata lugens) [2, 8] | pesticidal efficacy against brown planthopper (Nilaparvata lugens) [2, 9]

From patent publication US20120245159A1, “COMPOSITION AND METHOD FOR CONTROLLING ARTHROPOD PESTS” (SUMITOMO CHEMICAL COMPANY, LIMITED, priority 2009, published 2012)
